Tests used:
[1] = test system: TFEB; assay: Serum re-stimulation of serum-starved Tsc2-/- cells, TFEB localization; type: cell-based, mouse; details: preincubation with MK2206
Description: FIG. 15. Serum stimulation modulates subcellular localization of TFEB by regulating Akt activity. (a) WT and Tsc2^−/− cells were serum starved (16 h), treated with MK2206 in the last two hr of starvation where indicated, and stimulated with dialyzed serum for the last 30 min when indicated. Cell lysates were probed with antibodies as indicated. (b) WT and Tsc2^−/− cells were transiently transfected with TFEB-Flag and treated as in (a) and analyzed by immunofluorescence confocal microscopy. Scale bar is 60 μm.

[2] = test system: Cln3^Δex7-8 mice; assay: Wet brain weight; type: in vivo, mouse; details: 12-month-old Cln3^Δex7-8 mice, trehalose treatment; untreated 0.355±0.024 g, WT 0.516±0.021 g
Description: Cln3^Δex7-8 mice (stock no. 004685; Cln3^tm1.1Mem/J; CD-1 background)^32 were obtained from the Jackson Laboratory. Control (CD-1) and Cln3^Δex7-8 mice were housed 3-4 per cage in a room with a 12-h light/12-h dark cycle. Food and water were provided ad libitum. All mice used in this study were analyzed at 8 and 12 months of age and were littermates produced by crossing heterozygous Cln3^Δex7-8 mice. Only males were used for this analysis. Investigators were blinded when analyzing the data, and no randomization was necessary. No data were excluded from this study.
Trehalose (Swanson) was dissolved in drinking water to a final concentration of 2% and changed twice a week. Trehalose-containing water was given to Cln3^Δex7-8 and WT mice by spontaneous oral administration starting at 21 days of age and continuing until the day the mice died naturally (life span assessment) or were sacrificed for other studies.

[3] = test system: Cln3^Δex7-8 mice; assay: Hot plate test (pain sensitivity); type: in vivo, mouse; details: six-month-old Cln3^Δex7-8 mice, 50° C. surface
Excerpt: FIG. 1. Amelioration of disease pathology in JNCL mice fed with trehalose. […] Treated (Tre) Cln3^Δex7-8 mice: n=13. Untreated (UT) Cln3^4ex7-8 mice: n=12. (b) Weight of brains from 12-month-old WT and Cln3^Δex7-8 mice with or without trehalose treatment. All groups of mice, n=4 or 5. (c) Fractional anisotropy of brains from 12-month-old WT and Cln3^Δex7-8 mice with or without trehalose treatment. Left panel: representative coronal images of the four groups of brains; corpus callosa are indicated by the yellow arrowhead. Right panel: quantification of callosal volume. All groups of mice, n=3 or 4. Scale bar, […]. Three-dimensional reconstructions of the corpus callosum in mice from treated and control groups are reported in Supplementary Movies 1-4. (d) In the hot plate test, Cln3^Δex7-8 mice respond slower when placed on a 50° C. heated metal surface compared with wild-type (WT) littermates, indicating reduced pain sensitivity. Trehalose (Tre) treatment rescued this phenotype in Cln3^Δex7-8 mice. All groups of mice, n=14-19. Data represent means±s.e.m. *P<0.05, **P<0.01, ***P<0.001.

[4] = molecular target: T1, mTORC1 (Homo sapiens, UniProt P42345); assay: Immunoblot of mTORC1 substrates in HeLa cells; type: cell-based; details: trehalose 24 h or 48 h
T1 construct: endogenous in cells; host or cells: HeLa
Description: FIG. 8. […] HeLa cells were treated with trehalose for 24 h or 48 h, or with rapamycin (600 nM, 16 h) or Torin1 (300 nM, 2 h) as controls for mTORC1 inhibition. […] GAPDH was used as a loading control.
(§1) Brain tissue and cultured cells were collected and lysed in RIPA buffer (50 mM Tris-HCl, ph 7.4, 1% NP40, 0.5% Na-deoxycholate, 0.1% SDS, 150 mM NaCl, 2 mM EDTA and 50 mM NaF) including a cocktail of protease (Roche) and phosphatase (SIGMA) inhibitors. Protein concentrations were measured with the bicinchoninic acid protein assay kit (Pierce, Rockford, Ill.), using bovine serum albumin as standard. Lysates were separated via SDS-polyacrylamide gel electrophoresis (PAGE) and then transferred to nitrocellulose membranes. Blots were incubated in blocking buffer (5%, w/v, dried skimmed milk in Tris-buffered saline, pH 7.4 and 0.2% Tween 20, TBST) followed by overnight incubation with appropriate antibodies diluted in blocking buffer (5% dry milk). Western blot images were acquired by LAS 4000 (GE Healthcare) and quantified using ImageJ. Images have been cropped for presentation.

[5] = test system: CLEAR genes; assay: Real-time qPCR of CLEAR genes in control and JNCL fibroblasts; type: cell-based, human; details: treated versus untreated
Description: Control (Coriell Institute, USA) and JNCL fibroblasts (Gaslini Institute, Italy) were grown in DMEM (1:1, HyClone) supplemented with 10% heat-inactivated fetal bovine serum (FBS, Atlanta Biologicals), 2 mM L-glutamine, 100 U/ml penicillin and […] streptomycin (Invitrogen). HeLa cells were incubated for 2 h with LY294002 ([…], Cell Signaling), Torin 1 (300 nM, Cayman Chemical) or for 24 h with trehalose (100 mM, Sigma), rapamycin (300 nM, Sigma), MK2206 (1 μM, Selleckchem), U0126 ([…], Tocris) and dialyzed serum (GE Healthcare Life Sciences) for 30 min.
Total RNA was extracted from the control and JNCL fibroblasts and from WT and Cln3^Δex7-8 cortical neuron cultures using the RNEasy kit (Qiagen) according to the manufacturer's instructions. Half of the mouse brain was processed for the RNA extraction and one microgram was used for complementary DNA synthesis by QuantiTect Reverse Transcription kit (Qiagen). The primers for PCR with reverse transcription reactions are listed in Table St Quantitative real-time PCR was performed by using iQ SYBR Green Supermix on the CFX96 Touch Real-Time Detection System (Bio-Rad Laboratories). […] Relative gene expression was determined using the ΔΔCT method, normalizing to GAPDH (for human genes) and cyclophilin (for mouse genes). […]

[6] = test system: LAMP1; assay: LAMP1 immunoblot in primary cortical astrocyte cultures; type: cell-based, mouse; details: astrocytes from WT and Cln3^Δex7-8 mice, 100 mM trehalose 4 days
Description: Astrocytes were isolated from P0-1 mice and plated on poly-D-lysine coated six-well plates (BD Biosciences) in the presence of DMEM high glucose, supplemented with 10% FBS and 100 U/ml penicillin and […] streptomycin. After 7 days, the glial cell layer was removed and astrocytes were plated for treatment. An amount of 100 mM of trehalose was dissolved in the media the day after and kept for 4 days. Finally, astrocytes were collected and protein extracts were analysed by western blot assay.
as §1

SMILES	TFEB nucleus-to-cytosol translocation on serum re-stimulation [1]	wet brain weight [2] [g]	pain sensitivity in hot plate assay [3]	phosphorylation state of mTORC1 substrates [4]	expression of CLEAR genes [5]	LAMP1 levels [6]
Cl.NC1(c2ccc(-c3nc4ccn5c(=O)[nH]nc5c4cc3-c3ccccc3)cc2)CCC1 [MK2206, 8-[4-(1-aminocyclobutyl)phenyl]-9-phenyl-1,2,4-triazolo[3,4-f][1,6]naphthyridin-3(2H)-one]	prevented	–	–	–	–	–
OC[C@H]1O[C@H](O[C@H]2O[C@H](CO)[C@@H](O)[C@H](O)[C@H]2O)[C@H](O)[C@@H](O)[C@@H]1O [trehalose, a-D-glucopyranosyl a-D-glucopyranoside]	–	0.473 ± 0.028	fully restored	no changes in their phosphorylation state	increased expression of tested CLEAR genes	increased LAMP1 levels

Source: patent US10512656B2, “Compositions and methods for the treatment of lysosomal storage disorders and disorders characterized by lysosomal dysfunction” (Baylor College of Medicine, priority 2016, dated 2019)
